Experimental findings from article PMC10895799, “Differential contribution of THIK-1 K^+ channels and P2X7 receptors to ATP-mediated neuroinflammation by human microglia” (Journal of Neuroinflammation, 2024) are described below.

pIC50: −log10 of the molar value.

Common to all, as to format: cell-based
Test [1] concerns the target T1, THIK-1 (hKCNK13) (Homo sapiens, UniProt Q9HB14).
T1 construct: gene KCNK13
T1 sequence (Q9HB14 1-408): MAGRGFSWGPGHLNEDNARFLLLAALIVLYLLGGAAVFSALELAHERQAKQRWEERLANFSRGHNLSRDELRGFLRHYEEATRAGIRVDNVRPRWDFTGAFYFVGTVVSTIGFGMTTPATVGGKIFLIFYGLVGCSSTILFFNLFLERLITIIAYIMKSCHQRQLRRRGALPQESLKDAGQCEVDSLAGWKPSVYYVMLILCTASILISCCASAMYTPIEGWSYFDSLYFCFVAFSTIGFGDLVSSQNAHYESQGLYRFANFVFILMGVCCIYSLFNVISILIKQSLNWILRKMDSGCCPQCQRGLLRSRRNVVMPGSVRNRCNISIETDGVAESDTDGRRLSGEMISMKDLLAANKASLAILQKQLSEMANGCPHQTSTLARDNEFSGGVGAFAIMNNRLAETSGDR
As to the kind of experiment: radioligand displacement on HEK-hKCNK13 membranes; IC50 from FLIPR thallium flux in HEK293; QPatch IC50 […]. A general note: Loss of bound radioactivity is the signal in a displacement assay; it reports binding, not function.

The next test concerns the target T2, THIK-1 (mKCNK13) (Mus musculus, UniProt Q8R1P5).
T2 construct: gene Kcnk13
T2 sequence (Q8R1P5 1-405): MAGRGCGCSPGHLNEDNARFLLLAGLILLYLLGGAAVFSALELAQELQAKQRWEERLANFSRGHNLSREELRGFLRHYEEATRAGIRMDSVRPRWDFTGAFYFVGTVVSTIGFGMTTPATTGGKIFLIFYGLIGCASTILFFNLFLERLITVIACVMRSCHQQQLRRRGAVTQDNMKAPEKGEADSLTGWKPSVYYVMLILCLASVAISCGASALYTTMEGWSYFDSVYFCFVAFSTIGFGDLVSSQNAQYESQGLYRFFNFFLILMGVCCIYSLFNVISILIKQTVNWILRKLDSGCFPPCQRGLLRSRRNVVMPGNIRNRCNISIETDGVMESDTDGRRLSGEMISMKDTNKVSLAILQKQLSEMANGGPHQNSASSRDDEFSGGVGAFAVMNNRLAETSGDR
As to the kind of experiment: FLIPR thallium flux in HEK293 cells; patch clamp of WT and THIK-1 KO microglia. For orientation: Patch clamp records ionic current or voltage across a cell membrane.

The target of test [2] is T1, THIK-1 (hKCNK13). As to the kind of experiment: reference blocker in FLIPR thallium flux and QPatch assays of hTHIK-1 HEK cells.

With `COc1ncc(Cl)cc1C(=O)N(C)Cc1cccc(F)c1` [C100814], the figures for the negative logarithm of the IC50 (pIC50) at THIK-1 (hKCNK13) [1] and at THIK-1 (mKCNK13) were 7.15 and 7.21, respectively.
In the case of `CCCCC[N+](CCCCC)(CCCCC)CCCCC` [tetrapentylammonium], on THIK-1 (hKCNK13) [2], the “reference blocker in FLIPR thallium flux and QPatch assays of hTHIK-1 HEK cells” value was “normalised to controls using the nonselective THIK-1 antagonist tetrapentylammonium (TPA)”.

In general, pIC50 refers to −log10 of the IC50, conventionally taken in molar units. Read a high pIC50 as a small IC50.
